What was measured:
Type in all cases: in vivo
Lolium rigidum [1] = assay: Post-emergence herbicidal action; conditions: application rate 20 g/ha, rated visually after about 3 weeks vs untreated controls
Outline: (§1)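 Post-em spray, one-leaf stage (2–3 wk post-sowing), sandy loam, greenhouse. WP/EC in aqueous suspension/emulsion + 0.5% additive, 600 l/ha water, ≤20 g/ha. Visual % rating ~3 wk vs untreated: 100% dead, 0% like control.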

Matricaria inodora [2] = assay: Post-emergence herbicidal action; conditions: rated visually after about 3 weeks vs untreated controls
Outline: as §1

Hordeum murinum = assay: Post-emergence herbicidal action; conditions: application rate 20 g/ha
Outline: as §1

Echinochloa crus-galli [3] = assay: Post-emergence herbicidal action; conditions: rated visually after about 3 weeks vs untreated controls
Outline: as §1

Amaranthus retroflexus [4] = assay: Post-emergence herbicidal action; conditions: application rate 5 g/ha, rated visually after about 3 weeks vs untreated controls
Outline: as §1

Veronica persica [5] = assay: Post-emergence herbicidal action
Outline: as §1

Polygonum convolvulus [6] = assay: Post-emergence herbicidal action; conditions: application rate 5 g/ha
Outline: as §1

Digitaria sanguinalis [7] = assay: Post-emergence herbicidal action; conditions: rated visually after about 3 weeks vs untreated controls
Outline: as §1

Viola tricolor [8] = assay: Post-emergence herbicidal action; conditions: application rate 5 g/ha
Outline: as §1

Abutilon theophrasti [9] = assay: Post-emergence herbicidal action; conditions: application rate 5 g/ha, rated visually after about 3 weeks vs untreated controls
Outline: as §1

Setaria viridis [10] = assay: Post-emergence herbicidal action; conditions: rated visually after about 3 weeks vs untreated controls
Outline: as §1

Alopecurus myosuroides [11] = assay: Post-emergence herbicidal action; conditions: rated visually after about 3 weeks vs untreated controls
Outline: as §1

Stellaria media = assay: Post-emergence herbicidal action; conditions: application rate 5 g/ha, rated visually after about 3 weeks vs untreated controls
Outline: as §1

Pharbitis purpurea [12] = assay: Post-emergence herbicidal action; conditions: application rate 5 g/ha, rated visually after about 3 weeks vs untreated controls
Outline: as §1

Triticum aestivum = assay: Post-emergence crop plant compatibility
Outline: (§2)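 Greenhouse crop plants in sandy loam sprayed at one-leaf stage (2-3 weeks after sowing) with WP or EC formulations plus 0.5% additive, 600 l/ha water, at 5 g/ha or 20 g/ha. Damage scored visually after about 3 weeks as % versus untreated controls (100% = plants dead).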

Oryza sativa = assay: Post-emergence crop plant compatibility; conditions: application rate 5 g/ha
Outline: as §2

Lolium rigidum [13] = assay: Pre-emergence herbicidal action; conditions: application rate 80 g/ha
Description: (§3) B. Pre-Emergence Herbicidal Action and Crop Plant Compatibility Seeds of monocotyledonous and dicotyledonous weed plants and crop plants were placed in plastic or organic planting pots and covered with soil. The compounds of the invention, formulated in the form of wettable powders (WP) or as emulsion concentrates (EC), were then applied to the surface of the covering soil as aqueous suspension or emulsion with addition of 0.5% additive at a water application rate equivalent to 600 l/ha (converted). After the treatment, the pots were placed in a greenhouse and kept under good growth conditions for the test plants. After about 3 weeks, the effect of the preparations was scored visually in comparison with untreated controls as percentages. For example, 100% activity=the plants have died, 0% activity=like control plants. Tables B1 to B13 below show the effects of selected compounds of the general formula (I) according to Tables I.1 to I.36 on various harmful plants and at an application rate corresponding to 80 g/ha or less, which were obtained by the experimental procedure mentioned above.

Matricaria inodora [14] = assay: Pre-emergence herbicidal action; conditions: application rate 20 g/ha
Description: as §3

Echinochloa crus-galli [15] = assay: Pre-emergence herbicidal action; conditions: application rate 20 g/ha
Description: as §3

Amaranthus retroflexus [16] = assay: Pre-emergence herbicidal action; conditions: application rate 20 g/ha
Description: as §3

Veronica persica [17] = assay: Pre-emergence herbicidal action; conditions: application rate 20 g/ha
Description: as §3

Polygonum convolvulus [18] = assay: Pre-emergence herbicidal action; conditions: application rate 20 g/ha
Description: as §3

Digitaria sanguinalis [19] = assay: Pre-emergence herbicidal action; conditions: application rate 20 g/ha
Description: as §3

Viola tricolor [20] = assay: Pre-emergence herbicidal action; conditions: application rate 20 g/ha
Description: as §3

Avena fatua [21] = assay: Pre-emergence herbicidal action; conditions: application rate 80 g/ha
Description: as §3

Abutilon theophrasti [22] = assay: Pre-emergence herbicidal action; conditions: application rate 20 g/ha
Description: as §3

Setaria viridis [23] = assay: Pre-emergence herbicidal action; conditions: application rate 20 g/ha
Description: as §3

Alopecurus myosuroides [24] = assay: Pre-emergence herbicidal action; conditions: application rate 80 g/ha
Description: as §3

Pharbitis purpurea [25] = assay: Pre-emergence herbicidal action; conditions: application rate 20 g/ha
Description: as §3

Avena fatua [26] = assay: Post-emergence herbicidal action; conditions: application rate 20 g/ha, rated visually after about 3 weeks vs untreated controls
Outline: as §1

Zea mays = assay: Pre-emergence crop plant compatibility; conditions: application rate 20 g/ha
Description: B. Pre-Emergence Herbicidal Action and Crop Plant Compatibility
as §3, with “Seeds” for “B. Pre-Emergence Herbicidal Action and Crop Plant Compatibility Seeds”, “plants.” for “plants. Tables B1 to B13 below show the effects of selected compounds of the general formula (I) according to Tables I.1 to I.36 on various harmful plants and at an application rate corresponding to 80 g/ha or less, which were obtained by the experimental procedure mentioned above.”
Tables B14 to B16 below show the crop plant compatibilities of selected compounds of the general formula (I) according to Tables I.1 to I.36 at an application rate corresponding to 20 g/ha, which were obtained in experiments according to the experimental procedure mentioned above. Here, the observed effects on selected crop plants are stated in comparison to the untreated controls (values in %).

Compound	Echinochloa crus-galli (efficacy in %) (Echinochloa crus-galli [3]; application rate 5 g/ha) [%]	Amaranthus retroflexus (efficacy in %) (Amaranthus retroflexus [4]) [%]	Digitaria sanguinalis (efficacy in %) (Digitaria sanguinalis [7]; application rate 5 g/ha) [%]	Abutilon theophrasti (efficacy in %) (Abutilon theophrasti [9]) [%]	Pharbitis purpurea (efficacy in %) (Pharbitis purpurea [12]) [%]	Oryza sativa (efficacy in %) (Oryza sativa) [%]	Lolium rigidum (efficacy in %) (Lolium rigidum [13]) [%]	Matricaria inodora (efficacy in %) (Matricaria inodora [14]) [%]	Echinochloa crus-galli (efficacy in %) (Echinochloa crus-galli [15]) [%]	Amaranthus retroflexus (efficacy in %) (Amaranthus retroflexus [16]) [%]	Veronica persica (efficacy in %) (Veronica persica [17]) [%]	Polygonum convolvulus (efficacy in %) (Polygonum convolvulus [18]) [%]	Digitaria sanguinalis (efficacy in %) (Digitaria sanguinalis [19]) [%]	Viola tricolor (efficacy in %) (Viola tricolor [20]) [%]	Avena fatua (efficacy in %) (Avena fatua [21]) [%]	Abutilon theophrasti (efficacy in %) (Abutilon theophrasti [22]) [%]	Setaria viridis (efficacy in %) (Setaria viridis [23]) [%]	Alopecurus myosuroides (efficacy in %) (Alopecurus myosuroides [24]) [%]	Pharbitis purpurea (efficacy in %) (Pharbitis purpurea [25]) [%]	Veronica persica (efficacy in %) (Veronica persica [5]; application rate 5 g/ha) [%]	other results
Cn1c(C(F)(F)F)cc(=O)n(-c2cc(Sc3cccnc3SCC(=O)OCC3CCOC3)c(Cl)cc2F)c1=O (stereo not shown) [I.10-72]	100	100	80	100	100	20	–	–	–	–	–	–	–	–	–	–	–	–	–	–	Lolium rigidum (efficacy in %) (Lolium rigidum [1]): 80%; Matricaria inodora (efficacy in %) (Matricaria inodora [2]; application rate 20 g/ha): 100%; Hordeum murinum (efficacy in %) (Hordeum murinum): 80%; Veronica persica (efficacy in %) (Veronica persica [5]; application rate 20 g/ha): 80%; Polygonum convolvulus (efficacy in %) (Polygonum convolvulus [6]): 100%; Viola tricolor (efficacy in %) (Viola tricolor [8]): 100%; Setaria viridis (efficacy in %) (Setaria viridis [10]; application rate 5 g/ha): 90%; Alopecurus myosuroides (efficacy in %) (Alopecurus myosuroides [11]; application rate 20 g/ha): 80%; Stellaria media (efficacy in %) (Stellaria media): 90%; Triticum aestivum (efficacy in %) (Triticum aestivum; application rate 20 g/ha): 20%
CSCCOC(=O)COc1ncccc1Oc1cc(-n2c(=O)cc(C(F)(F)F)n(C)c2=O)c(F)cc1Cl [I.15-31]	–	100	100	100	100	20	100	100	100	100	100	100	100	100	100	100	100	100	100	100	Matricaria inodora (efficacy in %) (Matricaria inodora [2]; application rate 5 g/ha): 100%
Cn1c(C(F)(F)F)cc(=O)n(-c2cc(Oc3cccnc3OCC(=O)OC3COC3)c(Cl)cc2F)c1=O [I.15-115]	–	100	–	100	100	–	–	–	–	–	–	–	–	–	–	–	–	–	–	100	Lolium rigidum (efficacy in %) (Lolium rigidum [1]): 90%; Matricaria inodora (efficacy in %) (Matricaria inodora [2]; application rate 5 g/ha): 100%; Hordeum murinum (efficacy in %) (Hordeum murinum): 100%; Echinochloa crus-galli (efficacy in %) (Echinochloa crus-galli [3]; application rate 20 g/ha): 100%; Polygonum convolvulus (efficacy in %) (Polygonum convolvulus [6]): 100%; Digitaria sanguinalis (efficacy in %) (Digitaria sanguinalis [7]; application rate 20 g/ha): 100%; Viola tricolor (efficacy in %) (Viola tricolor [8]): 100%; Avena fatua (efficacy in %) (Avena fatua [26]): 90%; Setaria viridis (efficacy in %) (Setaria viridis [10]; application rate 20 g/ha): 100%; Alopecurus myosuroides (efficacy in %) (Alopecurus myosuroides [11]; application rate 5 g/ha): 80%; Stellaria media (efficacy in %) (Stellaria media): 100%; Triticum aestivum (efficacy in %) (Triticum aestivum; application rate 5 g/ha): 20%
Cn1c(C(F)(F)F)cc(=O)n(-c2cc(Oc3cccnc3OCC(=O)OCc3ccccn3)c(Cl)cc2F)c1=O [I.15-286]	100	100	100	100	100	20	100	100	80	100	100	100	100	100	100	100	100	100	100	100	Zea mays (efficacy in %) (Zea mays): 20%; Matricaria inodora (efficacy in %) (Matricaria inodora [2]; application rate 5 g/ha): 90%
Cn1c(C(F)(F)F)cc(=O)n(-c2cc(Oc3cccnc3OCC(=O)OCc3cccnn3)c(Cl)cc2F)c1=O [I.15-301]	100	100	–	100	100	20	100	100	80	100	80	100	100	100	100	100	100	100	100	100	Zea mays (efficacy in %) (Zea mays): 0%
